This is an account of results in patent publication US10566550B2, “Formulation containing an organic semiconductor and a metal complex” (Merck Patent GmbH, priority 2015, dated 2020).

This series in a line: Solubility of the materials in various solvents at 20° C. It is filed as physicochemical. Particulars: organic solvent or mixture, thermodynamic from solid. The method, then: For the purposes of this application, the solubility of a material in a solvent is taken to mean the highest material-to-solvent ratio in which the solution at room temperature (at about 20° C.), is clear and stays clear for at least several hours, preferably for at least 5 hours.
The solubility of a material in a solvent is the highest material-to-solvent ratio in which the solution at 20° C. is clear and stays clear for several hours.
The solubility (g/l) is determined according to the following method:
(1) A known amount of the solvent (for example 100 mL) is put in a container
(2) A defined amount of the material is added and the mixture is stirred with a magnetic stirring bar;

The mark [1] stands for this setting: LM8 Toluene:Hexafluorobenzene (7:3).

Converted amounts (≈) assume the structure as drawn.

With `O=C([O][Bi]([O]C(=O)c1ccc(F)c(F)c1F)[O]C(=O)c1ccc(F)c(F)c1F)c1ccc(F)c(F)c1F` [M1], the solubility by setting is: (LM1 Anisole:Xylene (2:1)) less than 7.5 mg/mL; (LM2 Anisole) less than 7.5 mg/mL; (LM3 Xylene) less than 7.5 mg/mL; (LM4 Chlorobenzene) less than 7.5 mg/mL; (LM5 THF) more than 100 mg/mL; (LM6 Toluene:THF (9:1)) more than 30 mg/mL. The solubility was 15 to 20 mg/mL (LM7 Hexafluorobenzene); 15 mg/mL under setting [1]; less than 7.5 mg/mL (LM9 Meta-difluorobenzene); less than 7.5 mg/mL (LM10 Fluorobenzene); less than 10 mg/mL (LM11 Acetonitrile); more than 20 mg/mL (LM12 Benzonitrile). In addition, the solubility was more than 20 mg/mL (LM13 Acetone); more than 40 mg/mL (LM14 DMF); 15 mg/mL (LM15 Toluene:DMF (8:2)); more than 20 mg/mL (LM16 DMSO); more than 20 mg/mL (LM17 Methanol); 20 mg/mL (LM18 Toluene:Methanol (8:2)). The solubility runs as follows: (LM19 EGDME) more than 20 mg/mL; (LM20 Toluene) less than 7.5 mg/mL.
For the molecule `CC1(C)c2ccccc2-c2ccc(N(c3ccc4c(c3)C3(c5ccccc5-c5ccccc53)c3ccccc3-4)c3ccccc3-c3ccccc3)cc21` [OS6], the solubility was more than 50 mg/mL (LM1 Anisole:Xylene (2:1)); 100 mg/mL (≈ 148 mM) (LM2 Anisole); 40 mg/mL (≈ 59.2 mM) (LM3 Xylene); more than 40 mg/mL (LM5 THF); more than 50 mg/mL (LM6 Toluene:THF (9:1)); 30 mg/mL (≈ 44.4 mM) under setting [1]. Further, the solubility was 10 mg/mL (≈ 14.8 mM) (LM14 DMF); 25 mg/mL (≈ 37 mM) (LM15 Toluene:DMF (8:2)); 10 mg/mL (≈ 14.8 mM) (LM16 DMSO); 30 mg/mL (≈ 44.4 mM) (LM18 Toluene:Methanol (8:2)); 60 mg/mL (≈ 88.8 mM) (LM20 Toluene).
